The nature of data set [1]: Half life in 12 hrs fasted Sprague-Dawley rat at 3 mg/kg, po administered as single dose measured up to 24 hrs by LC-PDA-MS/MS analysis. The conditions noted are these: in vivo. It counts as ADME, organism-based.
Data set [2] is described as follows: Cmax in 12 hrs fasted Sprague-Dawley rat at 3 mg/kg, po administered as single dose measured up to 24 hrs by LC-PDA-MS/MS analysis. It counts as ADME, organism-based. Also on record: dose 3 mg/kg, route oral. The conditions noted are these: in vivo.
The subject of data set [3] is Mus musculus. The data set can be described thus: Induction of hypoglycemia in fasting normal ICR mouse assessed as reduction in blood glucose level at 60 mg/kg, po measured up to 3 hrs post dose. The following applies: in vivo. It counts as organism-based.
The target in data set [4] is Free fatty acid receptor 1 (Homo sapiens, UniProt O14842). Briefly: Agonist activity at human FFA1 receptor expressed in CHO cells assessed as increase in intracellular calcium levels measured for 1 hr by Fluo 4-AM dye based FLIPR assay. It counts as functional, cell-based. In general terms: Calcium flux is commonly read through the fluorescence of an indicator in the cells.

A short description of data set [5]: Apparent volume of distribution during terminal phase in 12 hrs fasted Sprague-Dawley rat at 3 mg/kg, po administered as single dose measured up to 24 hrs by LC-PDA-MS/MS analysis. The following applies: in vivo. It counts as ADME, organism-based.
Data set [6] can be described thus: AUC (0 to 24 hrs) in 12 hrs fasted Sprague-Dawley rat at 3 mg/kg, po administered as single dose measured up to 24 hrs by LC-PDA-MS/MS analysis. It counts as ADME, organism-based. Set-up: time < 24 hr, dose 3 mg/kg, route oral. The following applies: in vivo.
Data set [7] relates to Mus musculus. The data set can be described thus: Antidiabetic activity in normal ICR mouse assessed as reduction in blood glucose level at 20 mg/kg, po administered 30 mins before oral glucose load by OGTT assay. It counts as functional, organism-based.
In data set [8] the test system is Mus musculus. Briefly: Antidiabetic activity in normal ICR mouse assessed as reduction in blood glucose AUC (0 to 120 mins) at 20 mg/kg, po administered 30 mins before oral glucose load by OGTT assay. It counts as functional, organism-based.
The test system of data set [9] is Mus musculus. Briefly: Induction of hypoglycemia in fasting normal ICR mouse assessed as reduction in blood glucose level at 15 mg/kg, po measured up to 3 hrs post dose. It counts as organism-based. The conditions noted are these: in vivo.

Calls of active or inactive are those of the source. The rule behind the calls is not given here.

Sequence of Free fatty acid receptor 1 (O14842 whole entry): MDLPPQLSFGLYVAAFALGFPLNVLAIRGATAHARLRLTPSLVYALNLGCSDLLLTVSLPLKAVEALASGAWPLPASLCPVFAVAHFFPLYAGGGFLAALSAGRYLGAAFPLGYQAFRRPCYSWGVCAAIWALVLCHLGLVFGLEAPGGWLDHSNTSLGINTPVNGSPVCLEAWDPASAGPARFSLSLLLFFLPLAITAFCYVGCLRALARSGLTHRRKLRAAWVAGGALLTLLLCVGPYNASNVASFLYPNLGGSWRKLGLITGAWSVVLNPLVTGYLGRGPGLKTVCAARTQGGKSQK

In [1], `[2H]C([2H])(Cc1ccc(OCc2cccc(-c3c(C)noc3C)c2)cc1F)C(=O)O` had a t1/2 of 3.14 h. Moreover, the peak level in [2] (Cmax) was 2910 ng/mL. For the same compound, the Activity entry in the data set on Mus musculus [3] is given as “Non-Toxic”. In addition, in [4], the EC50 was 37.4 nM. Also, the Vz/F in [5] was determined as 0.049 L/kg. Further, the AUC in data set [6] is 46492.43 ng·h/mL.
As for `[2H]C([2H])(Cc1ccc(OCc2cccc(-c3c(C)noc3C)c2)cc1)C(=O)O`, the t1/2 in data set [1] was determined as 2.58 h. The compound also registered a Cmax in data set [2] of 2360 ng/mL. Besides, in data set [4], the EC50 was 28.9 nM. For the same compound, in data set [5], the Vz/F was found to be 0.057 L/kg. This compound also displayed an AUC in data set [6] of 31694.16 ng·h/mL.
With `Cc1noc(C)c1-c1cccc(COc2ccc(CCC(=O)O)c(F)c2)c1`, the result with Mus musculus [7] and with Mus musculus [8] was inactive. Moreover, the outcome with Mus musculus [7] (tested as the 2H-labelled form) and in the data set on Mus musculus [8] (tested as the 2H-labelled form) was Active. Further, the t1/2 in [1] was determined as 1.75 h. The highest level in data set [2] (Cmax) was 1730 ng/mL. In addition, the EC50 in data set [4] was determined as 32.5 nM. Moreover, in data set [5], the Vz/F was found to be 0.074 L/kg. Moreover, in data set [6], the AUC was 14063.25 ng·h/mL.
With `COc1ccc(Cl)cc1C(=O)NCCc1ccc(S(=O)(=O)NC(=O)NC2CCCCC2)cc1` [GLYBURIDE], in the data set with Mus musculus [9], the Activity entry is reported as “Toxic”.

As usually defined, the Cmax is the peak of the concentration-time curve. What is called EC50 is the concentration giving half of the maximal effect. By AUC is commonly meant the area under the concentration-time curve, a measure of exposure. Higher therefore signals high exposure.

The values are drawn from ChEMBL document CHEMBL4339214, “Design, synthesis and biological activity of deuterium-based FFA1 agonists with improved pharmacokinetic profiles” (Bioorg Med Chem Lett, 2019).
